The subject of assay [1] is KRas-mediated phosphorylation of ERK in A549 cells. Description: Inhibition of KRas-mediated phosphorylation of ERK (Cisbio HTRF pERK), A549 cells. Type of assay: cell-based. To be noted: Homo sapiens; for inhibition at 0.1 µM: A549, 3 h, single point, 100 nM compound, 3 hrs. In outline:
(§1)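 Signal read by HTRF (d2/Cryptate antibody pair, 2 hr room-temperature incubation on lysate). Cells: 6,000 per well, 3 hr compound exposure. Titration: 10 uM highest, 3-fold, 10 points.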

Another assay deals with T1, KRas^Q61H (Homo sapiens, UniProt P01116, Q61H).
T1 construct: Biotinylated KRas (corresponding to amino acids 1-169, produced at Accelegan Inc.); biotin (biotinylated); purchased Accelegan Inc
T1 sequence (P01116 1-169 isoform P01116-2 Q61H): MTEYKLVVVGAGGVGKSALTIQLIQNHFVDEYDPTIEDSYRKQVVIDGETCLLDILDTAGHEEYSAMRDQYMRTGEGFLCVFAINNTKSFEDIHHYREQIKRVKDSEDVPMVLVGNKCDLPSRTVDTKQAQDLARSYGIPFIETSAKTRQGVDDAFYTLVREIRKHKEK
Kind of assay: KRas binding assay (TR-FRET tracer displacement), KRas Q61H. To be noted: for inhibition at 0.01 µM: single point, 10 nM compound, TR-FRET; for IC50: TR-FRET tracer displacement, KRas Q61H. (In TR-FRET formats the signal depends on donor and acceptor labels being close together.)

The next assay addresses T2, KRas^G12R (Homo sapiens, UniProt P01116, G12R).
T2 construct: Biotinylated KRas (corresponding to amino acids 1-169, produced at Accelegan Inc.); biotin (biotinylated); purchased Accelegan Inc
Kind of assay: KRas binding assay (TR-FRET tracer displacement), KRas G12R.

Assay [2] concerns KRas-mediated phosphorylation of ERK in AsPC-1 cells. Kind of assay: Inhibition of KRas-mediated phosphorylation of ERK (Cisbio HTRF pERK), AsPC-1 cells. Type of assay: cell-based. The note with it: Homo sapiens; for IC50: ASPC1, AsPC-1 cells, HTRF pERK; for inhibition at 0.1 µM: ASPC1, 3 h, single point, 100 nM compound, 3 hrs, AsPC-1 cells. In outline: (§2)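 Using 6,000 cells per well, compounds are applied for 3 hrs and cells then lysed at 4° C with shaking for 40 mins. Phospho-ERK is measured by HTRF after 2 hrs of lysate incubation with the d2/Cryptate antibody mixture.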

The test system of assay [3] is KRas-mediated phosphorylation of ERK in H460 cells. Kind of assay: Inhibition of KRas-mediated phosphorylation of ERK (Cisbio HTRF pERK), H460 cells. In kind it is cell-based. The note with it: Homo sapiens; for inhibition at 0.1 µM: NCI-H460, 3 h, single point, 100 nM compound, 3 hrs. The gist of the method:
as §2

The next assay has as its target T3, KRas^G12S (Homo sapiens, UniProt P01116, G12S).
T3 construct: Biotinylated KRas (corresponding to amino acids 1-169, produced at Accelegan Inc.); biotin (biotinylated); purchased Accelegan Inc
Kind of assay: KRas binding assay (TR-FRET tracer displacement), KRas G12S. The note with it: for inhibition at 0.01 µM: single point, 10 nM compound, TR-FRET; for IC50: TR-FRET tracer displacement, KRas G12S.

For assay [4], the system named is KRas-mediated phosphorylation of ERK in H727 cells. Kind of assay: Inhibition of KRas-mediated phosphorylation of ERK (Cisbio HTRF pERK), H727 cells. Type of assay: cell-based. To be noted: Homo sapiens; for IC50: NCI-H727, H727 cells, HTRF pERK; for inhibition at 0.1 µM: NCI-H727, 3 h, single point, 100 nM compound, 3 hrs, H727 cells. The gist of the method: as §2

The target of a further assay is T4, KRas^G12V (Homo sapiens, UniProt P01116, G12V).
T4 construct: Biotinylated KRas (corresponding to amino acids 1-169, produced at Accelegan Inc.); biotin (biotinylated); purchased Accelegan Inc
T4 sequence (P01116 1-169 isoform P01116-2 G12V): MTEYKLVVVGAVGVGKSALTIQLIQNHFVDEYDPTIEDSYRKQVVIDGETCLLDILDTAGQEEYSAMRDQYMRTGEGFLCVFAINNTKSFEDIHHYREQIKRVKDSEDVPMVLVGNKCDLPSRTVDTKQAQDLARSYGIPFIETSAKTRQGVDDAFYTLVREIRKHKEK
Kind of assay: KRas binding assay (TR-FRET tracer displacement), KRas G12V.

The subject of assay [5] is KRas-mediated phosphorylation of ERK in H358 cells. Description: Inhibition of KRas-mediated phosphorylation of ERK (Cisbio HTRF pERK), H358 cells. In kind it is cell-based. To be noted: Homo sapiens; for inhibition at 0.1 µM: NCI-H358, 3 h, single point, 100 nM compound, 3 hrs. The gist of the method: as §2
Another assay concerns the target T5, KRas^G12D (Homo sapiens, UniProt P01116, G12D).
T5 construct: Biotinylated KRas (corresponding to amino acids 1-169, produced at Accelegan Inc.); biotin (biotinylated); purchased Accelegan Inc
Kind of assay: KRas binding assay (TR-FRET tracer displacement), KRas G12D.

The target in a further assay is T6, KRas^G12C (Homo sapiens, UniProt P01116, G12C).
T6 construct: Biotinylated KRas (corresponding to amino acids 1-169, produced at Accelegan Inc.); biotin (biotinylated); purchased Accelegan Inc
T6 sequence (P01116 1-169 isoform P01116-2 G12C): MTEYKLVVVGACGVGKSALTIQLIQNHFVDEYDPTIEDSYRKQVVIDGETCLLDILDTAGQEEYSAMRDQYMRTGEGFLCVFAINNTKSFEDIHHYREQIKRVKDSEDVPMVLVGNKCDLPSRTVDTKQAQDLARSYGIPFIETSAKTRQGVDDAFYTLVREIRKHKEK
Kind of assay: KRas binding assay (TR-FRET tracer displacement), KRas G12C. To be noted: for inhibition at 0.01 µM: single point, 10 nM compound, TR-FRET; for IC50: TR-FRET tracer displacement, KRas G12C.

For assay [6], the system named is KRas-mediated phosphorylation of ERK in HCT116 cells. Description: Inhibition of KRas-mediated phosphorylation of ERK (Cisbio HTRF pERK), HCT116 cells. Type of assay: cell-based. The note with it: Homo sapiens; for inhibition at 0.1 µM: HCT-116, 3 h, single point, 100 nM compound, 3 hrs. In outline:
as §1

The next assay concerns the target T7, KRas^G12A (Homo sapiens, UniProt P01116, G12A).
T7 construct: Biotinylated KRas (corresponding to amino acids 1-169, produced at Accelegan Inc.); biotin (biotinylated); purchased Accelegan Inc
Description: KRas binding assay (TR-FRET tracer displacement), KRas G12A. The note with it: for inhibition at 0.01 µM: single point, 10 nM compound, TR-FRET; for IC50: TR-FRET tracer displacement, KRas G12A.

A further assay concerns the target T8, KRas^G13D (Homo sapiens, UniProt P01116, G13D).
T8 construct: Biotinylated KRas (corresponding to amino acids 1-169, produced at Accelegan Inc.); biotin (biotinylated); purchased Accelegan Inc
Kind of assay: KRas binding assay (TR-FRET tracer displacement), KRas G13D. The note with it: for inhibition at 0.01 µM: single point, 10 nM compound, TR-FRET; for IC50: TR-FRET tracer displacement, KRas G13D.

For the next assay, the target named is T9, KRas^WT (Homo sapiens, UniProt P01116).
T9 construct: Biotinylated KRas (corresponding to amino acids 1-169, produced at Accelegan Inc.); biotin (biotinylated); purchased Accelegan Inc
T9 sequence (P01116 1-169 isoform P01116-2): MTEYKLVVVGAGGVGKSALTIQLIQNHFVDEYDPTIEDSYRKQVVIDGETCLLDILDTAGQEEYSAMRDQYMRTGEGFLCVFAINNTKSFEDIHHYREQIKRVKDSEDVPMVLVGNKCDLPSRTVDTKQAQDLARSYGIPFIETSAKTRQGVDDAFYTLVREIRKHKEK
Kind of assay: KRas binding assay (TR-FRET tracer displacement), KRas WT. To be noted: for inhibition at 0.01 µM: single point, 10 nM compound, TR-FRET; for IC50: TR-FRET tracer displacement, KRas WT.

T2 sequence (P01116 1-169 isoform P01116-2 G12R): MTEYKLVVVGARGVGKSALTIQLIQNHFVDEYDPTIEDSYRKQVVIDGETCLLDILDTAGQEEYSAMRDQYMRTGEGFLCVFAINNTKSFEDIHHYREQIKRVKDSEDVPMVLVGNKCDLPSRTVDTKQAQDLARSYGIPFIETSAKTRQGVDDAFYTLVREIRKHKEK
T5 sequence (P01116 1-169 isoform P01116-2 G12D): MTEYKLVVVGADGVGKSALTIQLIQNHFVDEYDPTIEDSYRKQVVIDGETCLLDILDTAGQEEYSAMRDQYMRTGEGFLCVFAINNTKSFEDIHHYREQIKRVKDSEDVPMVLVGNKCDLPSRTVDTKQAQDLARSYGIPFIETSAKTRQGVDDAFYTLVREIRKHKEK
T3 sequence (P01116 1-169 isoform P01116-2 G12S): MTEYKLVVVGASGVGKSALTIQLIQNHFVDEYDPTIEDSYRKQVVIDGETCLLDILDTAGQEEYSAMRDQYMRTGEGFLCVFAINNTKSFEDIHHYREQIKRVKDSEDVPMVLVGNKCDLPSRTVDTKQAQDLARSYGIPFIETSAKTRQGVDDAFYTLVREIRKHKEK
T8 sequence (P01116 1-169 isoform P01116-2 G13D): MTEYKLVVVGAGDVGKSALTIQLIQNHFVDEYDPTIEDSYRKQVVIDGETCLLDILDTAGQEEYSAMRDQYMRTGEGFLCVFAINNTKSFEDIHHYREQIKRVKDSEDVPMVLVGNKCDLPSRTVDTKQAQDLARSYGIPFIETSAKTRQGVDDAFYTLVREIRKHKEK
T7 sequence (P01116 1-169 isoform P01116-2 G12A): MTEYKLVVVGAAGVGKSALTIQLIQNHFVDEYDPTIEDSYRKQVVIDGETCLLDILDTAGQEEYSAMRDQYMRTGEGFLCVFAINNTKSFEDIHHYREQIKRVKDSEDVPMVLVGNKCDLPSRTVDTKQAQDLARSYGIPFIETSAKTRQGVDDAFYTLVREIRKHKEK

With `CN(C)C(=O)OC[C@@H]1CC[C@@]2(COc3nc(N4CCC[C@@](C)(O)C4)c4cnc(-c5cc(O)cc6ccc(F)c(F)c56)c(F)c4n3)CCCN12` [Example 548, ((3S,7aR)-7a-(((7-(7,8-difluoro-3-hydroxynaphthalen-1-yl)-8-fluoro-4-((R)-3-hydroxy-3-methylpiperidin-1-yl)pyrido[4,3-d]pyrimidin-2-yl)oxy)methyl)hexahydro-1H-pyrrolizin-3-yl)methyl dimethylcarbamate], the inhibition at 0.1 µM in assay [1] was determined as 38%; in [3], 38%; in assay [5], 59%; in assay [6], 29%. Further, the inhibition at 0.01 µM on KRas^Q61H turned out to be 79%; on KRas^G12S, 79%; at KRas^G12C, 84%; at KRas^G12A, 79%; at KRas^G13D it was 86%; at KRas^WT, 79%. In addition, the IC50 on KRas^G12R was 5 nM; in assay [2], 55 nM; in assay [4] it was 88 nM; at KRas^G12V, 3 nM; on KRas^G12D, 2 nM.

Take `CCc1c(F)ccc2cc(O)cc(-c3ncc4c(N5CCC[C@]6(CCO6)C5)nc(OCC5(CN(C)C)CC5)nc4c3F)c12` [Example 699, (S)-4-(2-((1-((dimethylamino)methyl)cyclopropyl)methoxy)-8-fluoro-4-(1-oxa-6-azaspiro[3.5]nonan-6-yl)pyrido[4,3-d]pyrimidin-7-yl)-5-ethyl-6-fluoronaphthalen-2-ol]: the inhibition at 0.1 µM stood at 80% in [1], 95% in assay [3], 101% in [5] and 82% in assay [6]. Moreover, the IC50 in assay [1] (HTRF pERK) worked out at 2 nM; in [2], 2 nM; in assay [3] (NCI-H460, HTRF pERK), 5 nM; in [4], 6 nM; in [5] (NCI-H358, HTRF pERK), 3 nM; in assay [6] (HCT-116, HTRF pERK), 14 nM. For the same compound, the inhibition at 0.01 µM on KRas^Q61H amounted to 96%; at KRas^G12S it was 93%; at KRas^G12C it was 96%; on KRas^G12A it was 87%; on KRas^G13D, 96%; on KRas^WT, 91%.

Regarding `Nc1nc2c(-c3ncc4c(N5CCCC6(C5)NC(=O)NC6=O)nc(OCC56CCCN5CCC6)nc4c3F)ccc(F)c2s1` (stereo not shown) [Example 736, 7-(7-(2-amino-7-fluorobenzo[d]thiazol-4-yl)-8-fluoro-2-((tetrahydro-1H-pyrrolizin-7a(5H)-yl)methoxy)pyrido[4,3-d]pyrimidin-4-yl)-1,3,7-triazaspiro[4.5]decane-2,4-dione], the inhibition at 0.1 µM in assay [1] was 2%; in assay [2], -3%; in assay [4], -4%; in [5], 5%. Also, the IC50 on KRas^Q61H worked out at 26 nM; on KRas^G12R it was 640 nM; on KRas^G12S, 75 nM; at KRas^G12V, 664 nM; at KRas^G12D it was 2330 nM; at KRas^G12C it was 111 nM. The IC50 at KRas^G12A worked out at 173 nM; at KRas^G13D it was 93 nM; on KRas^WT it was 139 nM.

`Oc1cc2ccccc2c(-c2ncc3c(N4C[C@@H]5C[C@H](C4)[C@H](O)C5)nc(OC[C@@]45CCCN4C[C@H](F)C5)nc3c2F)c1F` [Example 751, (1R,5R,6R)-3-(8-fluoro-7-(2-fluoro-3-hydroxynaphthalen-1-yl)-2-(((2R,7aS)-2-fluorohexahydro-1H-pyrrolizin-7a-yl)methoxy)pyrido[4,3-d]pyrimidin-4-yl)-3-azabicyclo[3.2.1]octan-6-ol]: the inhibition at 0.1 µM in assay [1] is -10%; in [2], -2%; in assay [4], -50%; in [5] it was -17%. In addition, the IC50 on KRas^Q61H came out at 185 nM; on KRas^G12R, 139 nM; in assay [2] it was 5220 nM; at KRas^G12S, 91 nM; in assay [4], 3830 nM; on KRas^G12V, 93 nM. The IC50 on KRas^G12D came out at 372 nM; at KRas^G12C, 165 nM; on KRas^G12A it was 136 nM; on KRas^G13D, 172 nM; on KRas^WT, 167 nM.

On to `CN(C)C(=O)c1cc2n(n1)CCCN(c1nc(OCC34CCCN3CCC4)nc3c(F)c(-c4c5ccccc5cc5[nH]ncc45)ncc13)C2` [Example 757, 5-(7-(1H-benzo[f]indazol-4-yl)-8-fluoro-2-((hexahydro-1H-pyrrolizin-7a-yl)methoxy)pyrido[4,3-d]pyrimidin-4-yl)-N,N-dimethyl-5,6,7,8-tetrahydro-4H-pyrazolo[1,5-a][1,4]diazepine-2-carboxamide], for which the inhibition at 0.1 µM in [1] amounted to 2%; in assay [5] it was 10%. Moreover, the IC50 is 203 nM at KRas^Q61H; 101 nM on KRas^G12R; 9840 nM in assay [2]; 43 nM on KRas^G12S; greater than 10000 nM in assay [4]; 42 nM at KRas^G12V. The IC50 at KRas^G12D was determined as 12 nM; at KRas^G12C it was 46 nM; at KRas^G12A, 82 nM; on KRas^G13D it was 238 nM; at KRas^WT, 141 nM.

Take `Oc1cc2ccccc2c(-c2ncc3c(N4C[C@@H]5C[C@H](C4)[C@H](O)C5)nc(OC[C@@]45CCCN4C[C@H](F)C5)nc3c2F)c1Cl` [Example 765, (1R,5R,6R)-3-(7-(2-chloro-3-hydroxynaphthalen-1-yl)-8-fluoro-2-(((2R,7aS)-2-fluorohexahydro-1H-pyrrolizin-7a-yl)methoxy)pyrido[4,3-d]pyrimidin-4-yl)-3-azabicyclo[3.2.1]octan-6-ol]: the inhibition at 0.1 µM in assay [1] is 28%; in assay [2], -6%; in assay [4], -13%; in assay [5] it was -5%. The IC50 on KRas^Q61H is 164 nM; on KRas^G12R, 132 nM; in assay [2], 5910 nM; on KRas^G12S it was 100 nM; in assay [4], 2910 nM; on KRas^G12V, 83 nM. Further, the IC50 on KRas^G12D came out at 268 nM; on KRas^G12C it was 144 nM; at KRas^G12A, 139 nM; on KRas^G13D it was 146 nM; at KRas^WT it was 156 nM.

As to `Oc1cc(-c2ncc3c(N4C[C@@H]5C[C@H](C4)[C@H](O)C5)nc(OC[C@@]45CCCN4C[C@H](F)C5)nc3c2F)c2ccccc2c1Br` [Example 781, (1R,5R,6R)-3-(7-(4-bromo-3-hydroxynaphthalen-1-yl)-8-fluoro-2-(((2R,7aS)-2-fluorohexahydro-1H-pyrrolizin-7a-yl)methoxy)pyrido[4,3-d]pyrimidin-4-yl)-3-azabicyclo[3.2.1]octan-6-ol], the inhibition at 0.1 µM was -24% in assay [1] and 10% in assay [5]. For the same compound, the IC50 was 891 nM on KRas^Q61H; 778 nM on KRas^G12R; 8950 nM in [2]; 414 nM on KRas^G12S; greater than 10000 nM in [4]; 727 nM at KRas^G12V. Besides, the IC50 on KRas^G12D came out at 2450 nM; at KRas^G12C, 635 nM; at KRas^G12A, 716 nM; on KRas^G13D, 551 nM; at KRas^WT, 754 nM.

The term inhibition denotes the relative decrease from the control value, in per cent. As usually defined, the IC50 is the point on the concentration scale where inhibition reaches its midpoint. Low readings indicate inhibition by little substance, high ones a need for much substance.
